Results published in patent US5994340A, “Azetidinone derivatives as β-lactamase inhibitors” (SynPhar Laboratories, Inc., priority 1997, dated 1999).
pIC50: −log10 of the molar value. Counter-ions that a name gives are not always drawn.

Experiments:
[1] = molecular target: cephalosporinase from P. aeruginosa (Pseudomonas aeruginosa, UniProt P24735); assay: β-Lactamase inhibitory activity, spectrophotometric rate assay at 490 nm with nitrocefin as substrate; type: biochemical
Method: The inhibitory activities of present compounds (β-lactamase inhibitors) against cephalosporinase from P. aeruginosa was measured by spectrophotometric rate assay using 490 nm and using nitrocefin as a substrate (J. Antimicrob. Chemother., vol. 28, pp 775-776, 1991).

[2] = system: E. cloacae 40054; assay: MIC of ceftazidime, microbroth dilution; type: cell-based; details: Enterobacter cloacae, 40054, 18 h, read-out: MIC of ceftazidime alone
Method: (§1) After incubation in Mueller-Hinton Broth (Difco) at 37° C. for 18 h, the bacterial suspension was diluted and about 10^5 CFU/ml was applied to the drug-containing Mueller-Hinton Broth in each well of 96 well plate. The MICs were recorded after 18 h of incubation at 37° C. on the lowest combinations of drug that inhibited visible growth of bacteria.

[3] = system: E. cloacae MNH-2; assay: MIC of ceftazidime, microbroth dilution; type: cell-based; details: Enterobacter cloacae, MNH2, 18 h, read-out: MIC of ceftazidime alone
Method: as §1

[4] = system: E. cloacae P 99; assay: microbe, parasite or virus in culture; type: cell-based; details: Enterobacter cloacae, P99, 18 h, read-out: MIC of ceftazidime alone
Method: as §1

[5] = system: C. freundii 44032; assay: MIC of ceftazidime, microbroth dilution; type: cell-based; details: Citrobacter freundii, 44032, 18 h, read-out: MIC of ceftazidime alone
Method: as §1, with “[…]. After” for “After”

[6] = system: C. freundii CT-76; assay: MIC of ceftazidime, microbroth dilution; type: cell-based; details: Citrobacter freundii, CT76, 18 h, read-out: MIC of ceftazidime alone
Method: as §1, with “[…]. After” for “After”

[7] = system: E. aerogenes 41006; assay: MIC of ceftazidime, microbroth dilution; type: cell-based; details: Klebsiella aerogenes, 41006, 18 h, read-out: MIC of ceftazidime alone
Method: as §1, with “[…]. After” for “After”

[8] = system: E. aerogenes S-95; assay: MIC of ceftazidime, microbroth dilution; type: cell-based; details: Klebsiella aerogenes, S95, 18 h, read-out: MIC of ceftazidime alone
Method: as §1, with “[…]. After” for “After”

[9] = system: M. morganii 36014; assay: MIC of ceftazidime, microbroth dilution; type: cell-based; details: Morganella morganii, 36014, 18 h, read-out: MIC of ceftazidime alone
Method: as §1, with “[…]. After” for “After”

[10] = system: M. morganii 36030; assay: MIC of ceftazidime, microbroth dilution; type: cell-based; details: Morganella morganii, 36030, 18 h, read-out: MIC of ceftazidime alone
Method: as §1, with “[…]. After” for “After”

[11] = system: P. aeruginosa 46012; assay: MIC of ceftazidime, microbroth dilution; type: cell-based; details: Pseudomonas aeruginosa, 46012, 18 h, read-out: MIC of ceftazidime alone
Method: as §1, with “[…]. After” for “After”

[12] = system: P. aeruginosa AU-1; assay: MIC of ceftazidime, microbroth dilution; type: cell-based; details: Pseudomonas aeruginosa, AU1, 18 h, read-out: MIC of ceftazidime alone
Method: as §1, with “[…]. After” for “After”

[13] = system: P. aeruginosa AU-8; assay: MIC of ceftazidime, microbroth dilution; type: cell-based; details: Pseudomonas aeruginosa, AU8, 18 h, read-out: MIC of ceftazidime alone
Method: as §1, with “[…]. After” for “After”

[14] = system: P. aeruginosa L46004; assay: MIC of ceftazidime, microbroth dilution; type: cell-based; details: Pseudomonas aeruginosa, L46004, 18 h, read-out: MIC of ceftazidime alone
Method: as §1, with “[…]. After” for “After”

[15] = system: P. aeruginosa M 1405; assay: MIC of ceftazidime, microbroth dilution; type: cell-based; details: Pseudomonas aeruginosa, M1405, 18 h, read-out: MIC of ceftazidime alone
Method: as §1, with “[…]. After” for “After”

[16] = system: M. morganii 36010; assay: MIC of ceftazidime, microbroth dilution; type: cell-based; details: Morganella morganii, ceftazidime alone, 18 h
Method: as §1, with “The MICs of the antibiotics (e.g., ceftazidime) alone, the MICs of ceftazidime in combination with reference compounds particularly […] (Ref. compd. I) and the MICs of the β-lactamase inhibitors (10 μg/ml) of the present invention in combination with ceftazidime were determined with the same β-lactamase producing bacteria. After” for “After”

[17] = system: P. aeruginosa 46017; assay: MIC of ceftazidime, microbroth dilution; type: cell-based; details: Pseudomonas aeruginosa, ceftazidime alone, 18 h
Method: as §1, with “The MICs of the antibiotics (e.g., ceftazidime) alone, the MICs of ceftazidime in combination with reference compounds particularly […] (Ref. compd. I) and the MICs of the β-lactamase inhibitors (10 μg/ml) of the present invention in combination with ceftazidime were determined with the same β-lactamase producing bacteria. After” for “After”

[18] = system: P. aeruginosa 46220 DR-2; assay: MIC of ceftazidime, microbroth dilution; type: cell-based; details: Pseudomonas aeruginosa, 46220DR2; ceftazidime alone, 18 h
Method: as §1, with “The MICs of the antibiotics (e.g., ceftazidime) alone, the MICs of ceftazidime in combination with reference compounds particularly […] (Ref. compd. I) and the MICs of the β-lactamase inhibitors (10 μg/ml) of the present invention in combination with ceftazidime were determined with the same β-lactamase producing bacteria. After” for “After”

[19] = system: P. aeruginosa AU-10; assay: MIC of ceftazidime, microbroth dilution; type: cell-based; details: Pseudomonas aeruginosa, AU10; ceftazidime alone, 18 h
Method: as §1, with “The MICs of the antibiotics (e.g., ceftazidime) alone, the MICs of ceftazidime in combination with reference compounds particularly […] (Ref. compd. I) and the MICs of the β-lactamase inhibitors (10 μg/ml) of the present invention in combination with ceftazidime were determined with the same β-lactamase producing bacteria. After” for “After”

[20] = system: P. aeruginosa AU-5; assay: MIC of ceftazidime, microbroth dilution; type: cell-based; details: Pseudomonas aeruginosa, AU5; ceftazidime alone, 18 h
Method: as §1, with “The MICs of the antibiotics (e.g., ceftazidime) alone, the MICs of ceftazidime in combination with reference compounds particularly […] (Ref. compd. I) and the MICs of the β-lactamase inhibitors (10 μg/ml) of the present invention in combination with ceftazidime were determined with the same β-lactamase producing bacteria. After” for “After”

[21] = system: P. aeruginosa CT-122; assay: MIC of ceftazidime, microbroth dilution; type: cell-based; details: Pseudomonas aeruginosa, CT122; ceftazidime alone, 18 h
Method: as §1, with “The MICs of the antibiotics (e.g., ceftazidime) alone, the MICs of ceftazidime in combination with reference compounds particularly […] (Ref. compd. I) and the MICs of the β-lactamase inhibitors (10 μg/ml) of the present invention in combination with ceftazidime were determined with the same β-lactamase producing bacteria. After” for “After”

[22] = system: P. aeruginosa CT-137; assay: MIC of ceftazidime, microbroth dilution; type: cell-based; details: Pseudomonas aeruginosa, CT137; ceftazidime alone, 18 h
Method: as §1, with “The MICs of the antibiotics (e.g., ceftazidime) alone, the MICs of ceftazidime in combination with reference compounds particularly […] (Ref. compd. I) and the MICs of the β-lactamase inhibitors (10 μg/ml) of the present invention in combination with ceftazidime were determined with the same β-lactamase producing bacteria. After” for “After”

[23] = system: P. aeruginosa CT-144; assay: MIC of ceftazidime, microbroth dilution; type: cell-based; details: Pseudomonas aeruginosa, CT144; ceftazidime alone, 18 h
Method: as §1, with “The MICs of the antibiotics (e.g., ceftazidime) alone, the MICs of ceftazidime in combination with reference compounds particularly […] (Ref. compd. I) and the MICs of the β-lactamase inhibitors (10 μg/ml) of the present invention in combination with ceftazidime were determined with the same β-lactamase producing bacteria. After” for “After”

[24] = system: P. aeruginosa M2297; assay: MIC of ceftazidime, microbroth dilution; type: cell-based; details: Pseudomonas aeruginosa, ceftazidime alone, 18 h
Method: as §1, with “The MICs of the antibiotics (e.g., ceftazidime) alone, the MICs of ceftazidime in combination with reference compounds particularly […] (Ref. compd. I) and the MICs of the β-lactamase inhibitors (10 μg/ml) of the present invention in combination with ceftazidime were determined with the same β-lactamase producing bacteria. After” for “After”

[25] = system: P. aeruginosa sp 2439 Wt.; assay: MIC of ceftazidime, microbroth dilution; type: cell-based; details: Pseudomonas aeruginosa, SP2439WT.; ceftazidime alone, 18 h
Method: as §1, with “The MICs of the antibiotics (e.g., ceftazidime) alone, the MICs of ceftazidime in combination with reference compounds particularly […] (Ref. compd. I) and the MICs of the β-lactamase inhibitors (10 μg/ml) of the present invention in combination with ceftazidime were determined with the same β-lactamase producing bacteria. After” for “After”

[26] = system: P. aeruginosa 46220 DR-2-1; assay: microbe, parasite or virus in culture; type: cell-based; details: Pseudomonas aeruginosa, 46220DR21, 18 h, read-out: MIC of ceftazidime alone
Method: as §1, with “[…]. After” for “After”

[27] = system: P. aeruginosa PAO 303 carb-4; assay: microbe, parasite or virus in culture; type: cell-based; details: Pseudomonas aeruginosa, PAO303CARB4, 18 h, read-out: MIC of ceftazidime alone
Method: as §1, with “[…]. After” for “After”

[28] = system: β-lactamase; details: suggested by several publications; cited from earlier work

Chain of cephalosporinase from P. aeruginosa (P24735 27-397): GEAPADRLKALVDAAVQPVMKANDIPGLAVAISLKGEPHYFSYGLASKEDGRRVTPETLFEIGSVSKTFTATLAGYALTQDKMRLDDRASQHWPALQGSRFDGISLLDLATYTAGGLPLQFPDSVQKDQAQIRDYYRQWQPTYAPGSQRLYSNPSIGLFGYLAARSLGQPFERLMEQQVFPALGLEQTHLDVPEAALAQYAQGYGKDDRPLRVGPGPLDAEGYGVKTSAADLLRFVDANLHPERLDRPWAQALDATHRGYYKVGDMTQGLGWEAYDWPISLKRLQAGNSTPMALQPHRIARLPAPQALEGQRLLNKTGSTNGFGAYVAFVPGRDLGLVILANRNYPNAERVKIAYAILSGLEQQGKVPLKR

C[C@H]1[C@H](NC(=O)/C(=N/OC[C@H](N)CCN)c2cccs2)C(=O)N1S(=O)(=O)O [Compound 6]
pIC50 [1]: 7.00

C[C@H]1[C@H](NC(=O)/C(=N/OCC(N)CN)c2cccs2)C(=O)N1S(=O)(=O)O (some centres unmarked) [Compound 4]
pIC50 [1]: 7.19

C[C@H]1[C@H](NC(=O)/C(=N/OCCN)c2csc(N)n2)C(=O)N1S(=O)(=O)O [Reference Compound II]
pIC50 [1]: 6.10

CC(N)CO/N=C(/C(=O)N[C@@H]1C(=O)N(S(=O)(=O)O)[C@H]1C)c1cccs1 (stereo partly drawn) [Compound 10, (3S)-trans-3-[(E)-2-(2-Thienyl-2-{(2-amino)-prop-1-oxyimino}acetamido]-4-methyl-2-oxoazetidine-1-sulfonic acid, inner salt]
pIC50 [1]: 7.10

C[C@H]1[C@H](NC(=O)/C(=N/OCCN)c2cccs2)C(=O)N1S(=O)(=O)O [Compound 1]
pIC50 [1]: 7.70

C[C@H]1[C@H](NC(=O)/C(=N/OCC(N)CO)c2cccs2)C(=O)N1S(=O)(=O)O (stereo partly drawn) [Compound 9, (3S)-trans-3-[(E)-2-(2-Thienyl)-2-{1-hydroxy-2-amino-prop-3-oxyimino}acetamido]-4-methyl-2-oxoazetidine-1-sulfonic acid, inner salt]
pIC50 [1]: 7.10

CC(C)(O/N=C(\C(=O)N[C@@H]1C(=O)N2C(C(=O)[O-])=C(C[n+]3ccccc3)CS[C@H]12)c1csc(N)n1)C(=O)O [ceftazidime]
MIC [2]: > 32 µg/mL
MIC [3]: > 32 µg/mL
MIC [4]: > 32 µg/mL
MIC [5]: > 32 µg/mL
MIC [6]: > 32 µg/mL
MIC [7]: > 32 µg/mL
MIC [8]: > 32 µg/mL
MIC [9]: > 32 µg/mL
MIC [10]: > 32 µg/mL
MIC [11]: > 32 µg/mL
MIC [12]: > 32 µg/mL
MIC [13]: > 32 µg/mL
MIC [14]: > 32 µg/mL
MIC [15]: > 32 µg/mL
MIC [16]: > 32 µg/mL
MIC [17]: > 32 µg/mL
MIC [18]: 16 µg/mL
MIC [19]: > 32 µg/mL
MIC [20]: > 32 µg/mL
MIC [21]: 16 µg/mL
MIC [22]: 8 µg/mL
MIC [23]: 32 µg/mL
MIC [24]: > 32 µg/mL
MIC [25]: > 32 µg/mL
MIC [26]: > 32 µg/mL
MIC [27]: 32 µg/mL

C[C@H]1[C@H](NC(=O)/C(=N/OC(CN)CNC(=N)N)c2cccs2)C(=O)N1S(=O)(=O)O (some centres unmarked) [Compound 12]
pIC50 [1]: 5.96

C[C@H]1[C@H](NC(=O)/C(=N\OC(C)(C)C(=O)O)c2csc(N)n2)C(=O)N1S(=O)(=O)O [Reference Compound I, Aztreonam]
pIC50 [1]: 6.89
β-lactamase inhibitory properties [28]: possesses β-lactamase inhibitory properties

C[C@H]1[C@H](NC(=O)/C(=N/OC[C@@H](N)CCN)c2cccs2)C(=O)N1S(=O)(=O)O [Compound 5]
pIC50 [1]: 7.00

C[C@H]1[C@H](NC(=O)/C(=N/OCCNCCN)c2cccs2)C(=O)N1S(=O)(=O)O [Compound 7]
pIC50 [1]: 7.10

C[C@H]1[C@H](NC(=O)/C(=N/OCCCN)c2cccs2)C(=O)N1S(=O)(=O)O [Compound 2]
pIC50 [1]: 7.70

C[C@H]1[C@H](NC(=O)/C(=N/OC(CN)CO)c2cccs2)C(=O)N1S(=O)(=O)O (some centres unmarked) [Compound 8]
pIC50 [1]: 6.52

C[C@H]1[C@H](NC(=O)/C(=N/OC(CN)CN)c2cccs2)C(=O)N1S(=O)(=O)O [Compound 3, (3S)-trans-3-[(E)-2-(2-Thienyl)-2-{1,3-diamino-prop-2-oxyimino}acetamido]-4-methyl-2-oxoazetidine-1-sulfonic acid, triflate salt]
pIC50 [1]: 6.40

CC(CN)O/N=C(/C(=O)N[C@@H]1C(=O)N(S(=O)(=O)O)[C@H]1C)c1cccs1 (some centres unmarked) [Compound 11]
pIC50 [1]: 6.70
